Measurements: PubChem BioAssay AID1996
≈ marks a conversion by molar mass, not a printed value.

Details: buffer; pH 7.4; 200.0 µM

| SMILES | solubility kinetic [µg/mL] |
| --- | --- |
| O=C(NCc1cccnc1)c1cccs1 | > 32.7 |
| CN(C)C(=S)Nc1ccc(Cl)cc1 | > 32.2 |
| NC(=O)c1ccccc1OCC(=O)Nc1cccnc1Cl | > 45.9 |
| COC(=O)Cn1cc(C=C2C(=O)NC(=O)NC2=O)c2ccccc21 | 8.6 (≈ 26.3 µM) |
| Cn1c(=O)n(C)c2cc3[nH]cnc3cc21 | > 30.3 |
| CN(C(=O)COC(=O)/C=C/c1cccs1)C1CCCCC1 | 17.7 (≈ 57.6 µM) |
| CN(C)CCOC1c2ccccc2C=Cc2ccccc21.O=C(O)/C=C\C(=O)O | > 59.3 |
| NC(=O)NC(=O)COC(=O)/C=C/c1cccc(Br)c1 | 0.4 (≈ 1.22 µM) |
| CCCCc1c(C)[nH]c2nc3ccccc3n2c1=O | < 0.2 |
| c1ccc(-n2cnc3ccccc32)cc1 | 24.6 (≈ 127 µM) |
| COc1ccc(-c2cn3ccc(C)cc3n2)cc1 | 33.1 (≈ 139 µM) |
| O=C1CCN(S(=O)(=O)c2ccc(Br)cc2)CCN1 | 39.1 (≈ 117 µM) |
| CC(Oc1ccccc1)C(=O)N1CCN=C1SCc1ccccc1 (stereo unspecified) | 19.9 (≈ 58.5 µM) |
| CC(=O)O.Fc1ccc(NC(=S)Nc2cccnc2)cc1 | > 46.1 |
| O=C(CN1C(=O)NC2(CCCCCC2)C1=O)NCc1ccc(Cl)cc1 | 23.5 (≈ 64.6 µM) |
| O=C(O)CCC(=O)N1CCC[C@H]1C(=O)O | > 32.3 |
| CC1CC(C)CN(S(=O)(=O)c2ccc(C(=O)N(C)Cc3ccccc3)cc2)C1 (stereo unspecified) | 13.7 (≈ 34.2 µM) |
| CCOC(=O)c1ccc(NC(=S)N2CCN(CCO)CC2)cc1 | > 50.6 |
| O=C(/C=C/c1cccc(F)c1)N1CCN(c2ncccn2)CC1 | 12.4 (≈ 39.7 µM) |
| COCCn1c(SCC(=O)Nc2cccnc2Cl)nc2ccccc21 | 7.4 (≈ 19.6 µM) |
| CN1CCN(CC#Cc2ccccc2)CC1CCO (stereo unspecified) | > 38.8 |
| C=CCN1C(=O)C(C)NC1=S (stereo unspecified) | > 25.5 |
| O=C(Cc1ccc([N+](=O)[O-])cc1)Nc1cccnc1 | > 38.6 |
| COc1cccc(NC(=O)COC(=O)C2=NN(c3ccccc3)C(=O)CC2)c1 | > 57.2 |
| COc1ccc(CN(CCC(c2ccco2)C(C)C)C(C)=O)cc1OC (stereo unspecified) | 49.2 (≈ 137 µM) |

| SMILES | solubility kinetic [µg/mL] |
| --- | --- |
| CC(C)Cc1ccc(/C=C/C(=O)N2CCCCC2)cc1 | 11.6 (≈ 42.7 µM) |
| N/C(=N\OC(=O)/C=C/c1ccccc1)c1ccncc1 | 34.6 (≈ 129 µM) |
| CCN(CC(=O)NCCC1=CCCCC1)S(=O)(=O)c1ccccc1 | > 52.6 |
| CN(C)C(CNc1ccc(C(F)(F)F)cn1)c1ccccc1 (stereo unspecified) | > 46.4 |
| COc1ccc(C(=O)Nc2cccc3nc(C)ccc23)c(OC)c1 | 11.7 (≈ 36.3 µM) |
| CCCCCc1ccc(S(=O)(=O)Nc2cc(C)ccn2)cc1 | < 0.3 |
| COc1cccc(NC(=O)C(C)SCc2ccccc2)c1 (stereo unspecified) | > 45.2 |
| O=C(c1ccc(F)c(F)c1)N1CCCc2ccccc21 | 37.9 (≈ 139 µM) |
| CC1CN(c2nc(Nc3ccccc3)nc(N)c2[N+](=O)[O-])CC(C)O1 (stereo unspecified) | 48.1 (≈ 140 µM) |
| CCN=C1SC(C(=O)Nc2cccc(Cl)c2)CC(=O)N1CC (stereo unspecified) | 2.6 (≈ 7.65 µM) |
| CC(C)NC(=O)NNC(=O)c1nn(-c2ccc(F)cc2)ccc1=O | > 50 |
| CC(=O)OCC(=O)Nc1ccccc1C | > 31.1 |
| CC1CCN(Cc2cc(=O)oc3cc4c(cc23)CCCC4)CC1 | < 0.7 |
| S=C(NCc1cccnc1)Nc1cc(Cl)cc(Cl)c1 | 39.6 (≈ 127 µM) |
| C=C(C)C(=O)Nc1ccc2c(c1)OCCOCCOCCO2 | 35.2 (≈ 115 µM) |
| COc1ccccc1NC(=O)c1ccccc1NC(=O)c1ccccc1C(=O)O | > 58.6 |
| O=C(Cn1cc([N+](=O)[O-])ccc1=O)N1CCCc2ccccc21 | > 47 |
| COCCNC(=O)C(OC(=O)C1=Cc2ccccc2OC1)C(C)C (stereo unspecified) | > 50 |
| COC(=O)C1C(c2ccccc2)NC(=O)NC1(O)C(F)(F)Cl (stereo unspecified) | > 50.2 |
| O=C(c1cccc(S(=O)(=O)Nc2ccc(Br)cc2)c1)N1CCC1 | 58.9 (≈ 149 µM) |
| COc1ccc(-c2ocnc2C(=O)Nc2ccc3c(c2)CCC3)cc1 | 1.7 (≈ 5.08 µM) |
| O=C(O)c1cccc2c(/C=N/Nc3ccccn3)c[nH]c12 | > 42 |
| COc1cccc(CNC(=O)c2ccccc2-c2ccccc2)c1 | 2.1 (≈ 6.62 µM) |
| O=C(COC(=O)c1cccs1)Nc1cccc(S(=O)(=O)N2CCCCC2)c1 | 9.6 (≈ 23.5 µM) |
| CC1=CCC2C(=O)N(c3ccc(N4CCOCC4)cc3)C(=O)C2C1 (stereo unspecified) | 45.3 (≈ 139 µM) |

| SMILES | solubility kinetic [µg/mL] |
| --- | --- |
| COc1ccc(N=C2NC(=O)/C(=C\c3ccco3)S2)cc1 | 2.6 (≈ 8.66 µM) |
| CCN1CNC(=S)N(c2ccccc2C)C1 | > 35.3 |
| Cc1cccc(OCC(=O)OCC(=O)Nc2sccc2C(N)=O)c1 | 44.2 (≈ 127 µM) |
| Cc1ccc(C(=O)N(C)CC(=O)Nc2cccc(C)c2C)o1 | > 45.1 |
| Cc1onc(-c2ccccc2)c1C(=O)N(C)CC(=O)Nc1ccc(F)c(F)c1F | > 60.5 |
| C=CCn1c(C)cc(C(=O)COC(=O)CCc2cc(OC)c(OC)c(OC)c2)c1C | 31.8 (≈ 76.5 µM) |
| CCN(CC)c1ccc(NC(=O)c2cc3c(OC)cccc3[nH]2)cc1 | 0.5 (≈ 1.48 µM) |
| O=C(Nc1ccccn1)c1ccc(C(=O)Nc2ccccn2)cc1 | 0.5 (≈ 1.57 µM) |
| O=C1CC(c2ccsc2)Sc2ccccc2N1 (stereo unspecified) | 33.9 (≈ 130 µM) |
| Cc1ccccc1NC(=O)CCN1C(=O)c2ccccc2C1=O | 15.3 (≈ 49.6 µM) |
| Cc1cc2nc3n(c2cc1C)CCCN3 | > 30.2 |
| OCCNCCc1c[nH]c2ccc(OCc3ccccc3)cc12 | > 46.6 |
| CC1(C)C(C=C(Cl)Cl)C1C(=O)NC(O)C(=O)c1ccccc1 (stereo unspecified) | 10.8 (≈ 31.6 µM) |
| CC(C)N(CC(N)=O)c1ncnc2sc(-c3ccccc3)cc12 | 10.4 (≈ 31.9 µM) |
| Cc1ccnc(NC(=O)c2cccc(S(=O)(=O)Nc3ccc(C)cc3C)c2)c1 | 10.7 (≈ 27.1 µM) |
| Cc1cc(C(=O)COC(=O)c2cccc(NS(C)(=O)=O)c2)c(C)n1CC1CCCO1 (stereo unspecified) | 43.5 (≈ 100 µM) |
| Cc1cccc(C)c1NC(=O)CN1C(=O)C(C)Oc2ccccc21 (stereo unspecified) | 11.6 (≈ 35.8 µM) |
| O=S1(=O)C=C(SCc2ccc(F)cc2)Nc2ccccc21 | 22.5 (≈ 70 µM) |
| COc1ccccc1N1CN(CCc2ccccc2)CNC1=S | 45.4 (≈ 139 µM) |
| CC(=O)Nc1nc(C)cs1 | > 23.4 |
| O=C(CCN1C(=O)C2C3C=CC(C3)C2C1=O)N1CCCCC1 (stereo unspecified) | > 45.4 |
| O=C1CCC(=O)N1c1ccc(S(=O)(=O)N2CCCC2)cc1 | 45.4 (≈ 147 µM) |
| O=C(O)C1CN(C(=O)c2ccccc2)c2cc(Cl)ccc2O1 (stereo unspecified) | > 47.7 |
| COc1ccc(N2C(=O)CC(NCC#N)C2=O)cc1 (stereo unspecified) | 33.1 (≈ 128 µM) |
| Cc1ccc2cc(NC(=O)c3ccccc3)ccc2n1 | > 39.3 |

| SMILES | solubility kinetic [µg/mL] |
| --- | --- |
| O=C(CCSCc1ccccc1Cl)NC1CCCCC1 | 8.1 (≈ 26 µM) |
| C=CCNc1nc(-c2ccc3c(c2)OCCO3)cs1 | 16.3 (≈ 59.4 µM) |
| Cc1ccc2c(Cl)cc(Cl)c(OCC(=O)O)c2n1 | > 42.9 |
| CCOC(=O)c1sc(NC(=O)c2ccoc2C)c(C(N)=O)c1C | 7.3 (≈ 21.7 µM) |
| CCOc1ccc(NC(=O)CN2C(=O)NC(CCc3ccccc3)C2=O)cc1OCC (stereo unspecified) | 8.8 (≈ 20.7 µM) |
| O=C(/C=C/c1ccc(O)c(O)c1)NC(=O)c1ccccc1O | > 44.9 |
| Cc1ccc(CNc2cc(C(=O)O)ccc2C)s1 | > 39.2 |
| Clc1cc(Cl)cc(CN2CCSCC2)c1 | 4.5 (≈ 17.2 µM) |
| CN1CCN(C(=S)NC(=O)c2ccccc2Cl)CC1 | > 44.7 |
| Cc1ccc(S(=O)(=O)N2CCCCC2)cc1NC(=O)CSc1nnc(C2CC2)n1C | > 67.4 |
| N#Cc1c(C(F)(F)F)cc(=O)n2c1[nH]c1ccccc12 | > 41.6 |
| CCOC(=O)c1sc(NC(=O)Cc2ccc(F)cc2)nc1C | 3.8 (≈ 11.8 µM) |
| O=C(O)c1ccc(N2CCc3ccccc32)c([N+](=O)[O-])c1 | > 42.6 |
| Cc1ccccc1NC(=O)c1ccco1 | > 30.2 |
| CN(c1cccc(NS(=O)(=O)c2ccccc2)c1)S(C)(=O)=O | > 51.1 |
| O=C1CCN(C(=O)CCCn2c(=O)oc3ccccc32)CC1 | > 45.3 |
| CSc1cccc(NC(=S)Nc2ccc(F)cc2)c1 | 34.5 (≈ 118 µM) |
| CCC1CCCCN1CC(C)(C)NS(=O)(=O)c1ccccc1 (stereo unspecified) | 39.2 (≈ 121 µM) |
| NC(=S)Nc1ccc(Cl)cc1Cl | 32.9 (≈ 149 µM) |
| CCn1c(NCc2ccc(OC)cc2)nc2ccccc21 | > 42.2 |
| COC(=O)C1=C(Nc2ccccc2NC(=O)c2ccccc2C(=O)O)CSC1 | > 59.8 |
| Cc1cccc(C)c1NC(=O)CNCC(=O)N(C)C | > 39.5 |
| Cc1ccc(C(=O)Nc2ccc(OCc3ccccc3)cc2)s1 | 3.8 (≈ 11.7 µM) |
| O=C1NC(=O)/C(=C/c2ccccn2)S1 | > 30.9 |
| O=C(COc1ccc2ccc(=O)oc2c1)NC1CCCC1 | > 43.1 |

| SMILES | solubility kinetic [µg/mL] |
| --- | --- |
| CC(C)COc1ccc(Cc2c(O)[nH]c(=S)[nH]c2=O)cc1 | 28.9 (≈ 94.3 µM) |
| CC1CCCCC1NC(=O)Cn1c(=O)cnc2ccccc21 (stereo unspecified) | 5 (≈ 16.7 µM) |
| CN(CC(=O)NC(=O)Nc1ccccc1F)Cc1ccccc1F | 2.7 (≈ 8.1 µM) |
| Cn1cccc1C(=O)OCc1cc(-c2ccco2)on1 | 13.8 (≈ 50.7 µM) |
| Cc1nc2ccc(C(=O)O)cc2c2c1CC(CN)O2 (stereo unspecified) | 19.7 (≈ 76.3 µM) |
| CCOC(=O)Cc1cc(=O)n2[nH]c(C)c(-c3ccccc3OC)c2n1 | > 51.2 |
| CCN(C(=O)COc1ccc(C)cc1OC)c1cccc2ccccc12 | 33.7 (≈ 96.4 µM) |
| Cc1ccc(C(=O)NCc2ccc3c(c2)OCO3)c(C)c1 | 11.1 (≈ 39.2 µM) |
| COc1ccccc1NC1=Nc2cccc3cccc1c23 | 4.9 (≈ 17.9 µM) |
| Cc1oc(-c2cc(F)cc(F)c2)nc1CN1CCSCC1 | 26.3 (≈ 84.7 µM) |
| C/C=C/n1ccnc1CC(O)(c1ccccc1)c1ccc(C)cc1 (stereo unspecified) | 3.3 (≈ 10.4 µM) |
| CCOC(=O)C(c1ccccc1)C(Nc1ccc(F)cc1)c1ccccn1 (stereo unspecified) | 11.9 (≈ 32.7 µM) |
| COc1cccc(NC2=C(NCCO)C(=O)c3ccccc3C2=O)c1 | 47.4 (≈ 140 µM) |
| Cc1cc(C)cc(NC(=O)C[n+]2ccccc2)c1.[Cl-] | > 41.5 |
| COC1c2ccccc2C(=O)N1CCc1ccc(Cl)cc1 (stereo unspecified) | 41.7 (≈ 138 µM) |
| NC(=O)c1ccccc1NC(=O)c1ccc2ccccc2c1 | < 0.3 |
| CC(=O)Nc1ccc(S(=O)(=O)N(CC(=O)NC2CC2)Cc2ccccc2)cc1 | > 60.2 |
| CCOC(=O)c1sc(=S)n(-c2ccc(OC)cc2)c1N | 2 (≈ 6.44 µM) |
| O=C(NCc1ccc(Cl)c(Cl)c1)C1CCCC1 | 32.6 (≈ 120 µM) |
| CN1CCN(CC(=O)Nc2c(C(=O)c3ccccc3)oc3ccccc23)CC1 | 48.4 (≈ 128 µM) |
| COc1cccc(OCCn2cc(C=O)c3ccccc32)c1 | 12.2 (≈ 41.3 µM) |
